Test results taken from patent publication US20080040819A1, “Methods of identifying agents for treatment of schizophrenia and related disorders” (Wyeth, priority 2006, published 2008).
Read-outs that look alike come from different tables or passages of the source.

Legend:
GPR88 KO and WT mice [1] = assay: Phencyclidine-stimulated locomotor hyperactivity; type: in vivo
GPR88 KO and WT mice [2] = details: 0.54 mg/kg i.p. 30 minutes before testing, PPI averaged across 3 dB levels
Description: To detect potential phenotypic deficits in the GPR88 knockout mice, they were first evaluated for startle habituation. In brief, mice were tested using the SR-LAB (San Diego Instruments, San Diego, Calif.) system. Each system consists of a ventilated sound attenuated chamber containing a stabilimeter consisting of a Plexiglas cylinder (12.5 cm length, 3.5 cm diameter) mounted on a Plexiglas frame. Acoustic stimuli were delivered through a speaker mounted in the enclosure ceiling, that was 27 cm above the cylinder. Startle responses were transduced by a piezoelectric accelerometer mounted beneath the frame. Output signals were digitized and rectified as consecutive 1-millisecond (msec) readings (a total of 65 were recorded, and startle response was expressed as an averaged response across these samples) on a computer using the San Diego Instrument software. Mice were placed individually in the chamber for a 5-minute acclimation period at a background noise level of 64 dB.
Prepulse inhibition was measured immediately following the startle sensitivity test. […] Percentage prepulse inhibition was calculated as 100 minus the ratio of the average startle response observed at each prepulse+pulse trial relative to the pulse alone stimulus, times 100. The percentage prepulse at across dB levels was analyzed by repeated-measures ANOVA. […] Males and females were analyzed separately. […]

GPR88 KO and WT mice [3] = assay: Antipsychotic block of apomorphine-induced climbing and stereotypy; type: in vivo
Description: Observation and scoring for climbing and stereotypy were performed as described in Example 6. […] Males and females were analyzed separately. […] For graphical representation, the data was normalized to the amount of climbing and stereotypy shown by the vehicle treated control group.

GPR88 KO and WT mice [4] = assay: Haloperidol-induced catalepsy; type: in vivo; details: 1 mg/kg i.p., 30-120 minutes, male and female mice
Description: Maintenance of this position was considered catalepsy. […] Males and females were analyzed separately.

[5] = molecular target: T1, striatal dopamine D2 receptors (Mus musculus, UniProt P61168); assay: [^3H]spiperone binding to striatal membrane preparations; design: species or system mice; details: pool of 10
T1 construct: from tissue; host or cells: mouse striatum (membrane preparation / homogenate)
Description: Striata from 10 mice (male and female, WT & GPR88 KO) were pooled and homogenized in a motor-driven POLYTRON™ homogenizer (Kinematica AG, Newark, N.J.) at setting six for 10 seconds in 3 mL per 100 mg of wet tissue in 50 mM Tris-HCl buffer, pH 7.4, containing 120 mM NaCl, 5 mM KCl, 1.5 mM CaCl2, 4 mM MgCl2, and 1 mM EDTA. […] The binding of each concentration of radioligand was determined in duplicate. Incubations were carried out at room temperature for 120 minutes. The final concentration of the membrane protein in each binding assay was approximately 70 μg/ml. Butaclamol (+), (10 μM), (Sigma-Aldrich, St. Louis, Mo.) was used to define the nonspecific binding. The incubations were terminated by rapid filtration using a Wallac Tomtec harvester (Waltham, Mass.) and buffer-presoaked glass fiber filter mats (GF/B, Whatman Inc. Florham Park, N.J.). […] The radioactivity of the filters was then counted in a Wallac 1205 scintillation counter (Perkin Elmer Life and Analytical Sciences).
The estimates of Bmax (the number of available binding receptors) and Kd (the dissociation constant) were calculated by fitting the specific binding data with nonlinear regression using GraphPad PRISM™ data analysis software (GraphPad Software, San Diego, Calif.).

GPR88 KO and WT mice [6] = assay: Apomorphine-induced climbing and stereotypy; type: in vivo
Description: The GPR88 KO and WT mice were acclimated to a wire cage (cylindrical ½″×½″ mesh with the dimensions of 4½″ d×5½″ h) for at least 2 hours before testing to allow proper habituation. […] (+ present, − absent). Readings were repeated every 5 minutes during a 30-minute test session.
The behavioral assessment was conducted over three conditions in succession: (1) an evaluation of the response to a subcutaneous vehicle (0.25% TWEEN® 80) injection to establish a baseline; (2) followed by an evaluation of the response to a dose of 0.3 mg/kg subcutaneous apomorphine injection; (3) followed by an evaluation of the response to 1 mg/kg subcutaneous apomorphine injection. Behavioral observation began 5 minutes after each injection. Vehicle was given at T0 minutes with observational assessment from T5-T35 minutes and habituation followed from T35-T65 minutes.
At T65, the 0.3 mg/kg dose of apomorphine was administered. Behavioral observation for the 0.3 mg/kg dose of apomorphine was from T70-T100, followed by another habituation from T100-T130 minutes.
At T130 min, the 1.0 mg/kg dose of apomorphine was administered and then the mice were scored from T135-T165 min. For each subject, the climbing scores were totaled for each observational period (maximum=12 per animal). Stereotypy scores were also summed up (maximum=6 per animal). […] Males and females were analyzed separately.

GPR88 KO and WT mice [7] = assay: Amphetamine-stimulated locomotor hyperactivity; type: in vivo; details: 3 mg/kg i.p., 40-90 min
Description: The amphetamine-stimulated locomotor hyperactivity assay is another type of assay to model the neuropathological states in schizophrenia, similar to the hyperdopaminergia in the ventral striatum. To measure spontaneous activity and amphetamine-stimulated locomotor hyperactivity, the mice were individually placed in Opto-Veramax-3 monitor cages (Columbus Instruments, Columbus, Ohio) and allowed to habituate for 30 minutes with room light and white noise on. After habituation, each mouse was injected with amphetamine (AMPH, 3 mg/kg) in the intraperitoneum. During the first 30 minutes, the spontaneous activity was recorded every 10 minutes. After amphetamine administration, amphetamine-stimulated locomotor hyperactivity was measured every 10 minutes over a 60 minutes time span by the activity monitor. Accuscan Versamax and Versadat software (Columbus Instruments, Columbus, Ohio) were used to convert the infrared beam breaks into horizontal activity counts. […] Males and females were analyzed separately.

striatal dopamine = assay: In vivo striatal microdialysis; details: 3 mg/kg i.p., male and female GPR88 KO and WT mice, dialysates for 3 hours
Description: Chromatographic separations were performed using a Capcell PAK™, Strong Cation Exchange columns (5 μm UG80, 1.5×150 mm; Shiseido, Phenomenex, USA). The mobile phase comprised (mM) 13 Na2HPO4, 87 NaH2PO4, 0.1 EDTA and 20% methanol, was adjusted to pH 6 and delivered at 0.2 ml/minutes at 40° C.

dopamine D2 receptors = dopamine D2 receptors (Mus musculus, UniProt P61168); details: 1 mM dopamine, striatal membranes
Description: Briefly, striata were collected from the mice (9 GPR88 KO or WT) and frozen at 80° C. until use. The tissue was homogenized in 1:100 volume (wet weight/volume) of ice-cold K-HEPES buffer (20 mM, pH=7.6), containing 7 mM of MgCl2, 100 mM of NaCl, 1 mM of EDTA, and 1 mM of DTT (buffer A), and centrifuged at 45,000 g for 10 minutes at 4° C. The membrane pellet was resuspended in 100 volumes (w/v) of fresh buffer A and re-centrifuged under the same conditions.
The incubation was started by addition of [^35S]GTPγS (final concentration 0.5 nM) and proceeded for 90 minutes at 30° C. The assay was terminated by filtration through a filter plate (GF/B, Perkin Elmer Life and Analytical Sciences) with five washings of cold buffer A (350 μl). The filter plate was air-dried and the radioactivity content of the filters was counted in 25 μl scintillation cocktail MICROSCINT™ 20 (Perkin Elmer Life and Analytical Sciences) by a Perkin Elmer TopCount NXT scintillation counter.

[8] = GPR88 KO and WT female mice, 0.3 mg/kg haloperidol
[9] = male WT mice, 0.54 and 1.0 mg/kg haloperidol

T1 sequence (P61168 whole entry): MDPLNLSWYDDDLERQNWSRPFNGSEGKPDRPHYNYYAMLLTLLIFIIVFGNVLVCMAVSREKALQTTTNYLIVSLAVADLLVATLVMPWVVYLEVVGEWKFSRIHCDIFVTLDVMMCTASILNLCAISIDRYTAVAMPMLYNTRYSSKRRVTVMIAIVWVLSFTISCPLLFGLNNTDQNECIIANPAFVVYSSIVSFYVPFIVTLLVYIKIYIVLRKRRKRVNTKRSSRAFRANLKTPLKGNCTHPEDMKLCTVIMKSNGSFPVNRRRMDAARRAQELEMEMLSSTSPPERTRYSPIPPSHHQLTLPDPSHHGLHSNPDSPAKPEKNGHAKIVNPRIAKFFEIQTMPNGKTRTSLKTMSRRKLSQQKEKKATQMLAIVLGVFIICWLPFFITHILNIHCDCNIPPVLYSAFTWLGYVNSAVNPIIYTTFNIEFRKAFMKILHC
Chain of dopamine D2 receptors (P61168 whole entry): as above

With c1ccc(C2(N3CCCCC3)CCCCC2)cc1 [PCP, phencyclidine] as the compound, how does the PCP-stimulated locomotor activity (GPR88 KO and WT mice [1]; female WT and GPR88 KO mice, 1.0 mg/kg) read?
The PCP-stimulated locomotor activity was “Neither of the genotypes responded”.

And the PCP-stimulated locomotor activity (GPR88 KO and WT mice [1]; female WT and GPR88 KO mice, 1.7 mg/kg or 3.0 mg/kg)?
Its PCP-stimulated locomotor activity is “increased locomotor activity”.

What about the PCP-stimulated locomotor activity (GPR88 KO and WT mice [1]; male WT and GPR88 KO mice, highest dose 3 mg/kg i.p.) of the same compound?
The PCP-stimulated locomotor activity was “increased locomotor activity”.

What about the PCP-stimulated locomotor activity (GPR88 KO and WT mice [1]; male WT and GPR88 KO mice, lower doses (1.0, 1.7 mg/kg)) of the same compound?
The PCP-stimulated locomotor activity was “Neither of the genotypes responded”.

What does the source list for Cc1nc2n(c(=O)c1CCN1CCC(c3noc4cc(F)ccc34)CC1)CCCC2 [risperidone]?
percentage prepulse inhibition (PPI), treatment versus vehicle (GPR88 KO and WT mice [2]; male GPR88 KO mice): increasing PPI over untreated; percentage prepulse inhibition (PPI), treatment versus vehicle (GPR88 KO and WT mice [2]; male WT mice): increasing PPI over untreated

How did the “block of apomorphine-induced climbing” value (GPR88 KO and WT mice [3]; [8]) turn out when O=C(CCCN1CCC(O)(c2ccc(Cl)cc2)CC1)c1ccc(F)cc1 [haloperidol] was run?
The value was “full block of climbing”.

What about the “block of apomorphine-induced stereotypy” value (GPR88 KO and WT mice [3]; [8]) of the same compound?
Its value is “full block of stereotypy”.

What about the “minimal effective dose, apomorphine-induced climbing and stereotypy assay (summary)” value (GPR88 KO and WT mice [3]; GPR88 KO male mice) of the same compound?
The value was 0.54 mg/kg.

And the “minimal effective dose, apomorphine-induced climbing and stereotypy assay (summary)” value (GPR88 KO and WT mice [3]; WT male mice)?
The value was under 0.3 mg/kg.

And the “block of apomorphine-induced climbing” value (GPR88 KO and WT mice [3]; male GPR88 KO mice, 1.0 mg/kg haloperidol)?
Its value is “full block of climbing”.

And the “block of apomorphine-induced climbing” value (GPR88 KO and WT mice [3]; [9])?
The value was “full block of climbing”.

And the “block of apomorphine-induced stereotypy” value (GPR88 KO and WT mice [3]; [9])?
Its value is “full block of stereotypy”.

And the “catalepsy (percentage of maximum possible catalepsy), GPR88 KO versus WT” value (GPR88 KO and WT mice [4])?
Its value is “equivalent levels of catalepsy”.

Which “Bmax (number of available binding receptors)” value ([5]; striatal membranes of GPR88 KO mice) does the source give for O=C(CCCN1CCC2(CC1)C(=O)NCN2c1ccccc1)c1ccc(F)cc1 [[^3H]spiperone] here?
Its value is 1.83 pmol/mg.

What about the “Bmax (number of available binding receptors)” value ([5]; striatal membranes of WT mice) of the same compound?
The value was 1.34 pmoles/mg protein.

Which results are given for CN1CCc2cccc3c2[C@H]1Cc1ccc(O)c(O)c1-3 [apomorphine]?
apomorphine-induced climbing scores, dose effect (GPR88 KO and WT mice [6]; female GPR88 KO and WT mice, 1 mg/kg s.c.): the most climbing; apomorphine-induced stereotypy scores, dose effect (GPR88 KO and WT mice [6]; male GPR88 KO and WT mice, 1 mg/kg s.c.): maximal stereotypy; apomorphine-induced climbing scores, dose effect (GPR88 KO and WT mice [6]; male GPR88 KO and WT mice, vehicle, 0.3 and 1 mg/kg s.c.): climbing increasing with the dose

What does the source list for CC(N)Cc1ccccc1 (centres unmarked) [amphetamine]?
locomotor activity after amphetamine administration (GPR88 KO and WT mice [7]; GPR88 KO male mice): significant increase in activity; locomotor activity after amphetamine administration (GPR88 KO and WT mice [7]; female mice): significant increase in activity; striatal extracellular dopamine after amphetamine (striatal dopamine): significant and equal increase in dopamine

Which “stimulation of [^35S]GTPγS binding in GPR88 KO mice relative to WT mice” value (dopamine D2 receptors) does the source give for NCCc1ccc(O)c(O)c1 [dopamine] here?
The value was “twice”.
